Test results taken from patent publication US5336485A, “Method for protecting animals against tacrine induced cytotoxic injury using sterol compounds” (priority 1993, dated 1994).
Counter-ions that a name gives are not always drawn. Like-named read-outs stand apart in the source and are kept apart here.

Legend:
rat hepatocytes [1] = test: Intracellular K+ of rat hepatocytes exposed to EMS; type: cell-based
Excerpt: Medzhradsky, Biochem. Med. 13:164 (1975), has noted that the cell's ability to maintain its intracellular concentration of potassium (K^+) is an excellent indicator of the metabolic integrity of the cell. A concentration gradient exists for K^+ with greater concentrations found intracellularly. To maintain this gradient, the cell is dependent on the action of the Na^+ -K^+ ATPase pump and an adequate supply of ATP. As cellular ATP levels decline, the ATPase pump is unable to maintain the gradient resulting in the loss of intracellular K^+ by equilibration with the extracellular space. Because the maintenance of cellular metabolic processes is essential to the continual repair and survival of cells, organ systems, and organisms, the effect of alpha-TS on the metabolic integrity of rat liver cells during a toxic insult was investigated by measuring intracellular K^+ levels. […] At each time-point, rapid separation of viable from non-viable hepatocytes and medium was accomplished by the dibutyl phthalate centrifugation method. Cell viability was monitored hourly by measuring LDH leakage with a Cobas Analyzer and intracellular [K^+ ]with a flame photometer. […] Lipid peroxidation was determined by measuring TBA reactants in the medium. […] Alltech, Avondale, Pa.). […] Following the addition of 0.2 ml 4 M HC1, the neutralized KOH-MeOH extracted with 0.8 ml hexane. […] A standard curve for each tocopherol congener was run with every assay. […] Only viable cells were monitored in the laboratory procedures.

rat hepatocytes [2] = test: EMS-induced cytotoxicity (LDH leakage/cell death) in rat hepatocyte suspensions; conditions: for Protection From Toxic Injury: EMS 3 h; for inhibition at 25 µM: Rattus norvegicus, Hepatocyte
Sprague-Dawley rats = test: Paraquat lethality in rats; conditions: rat, in vivo
Protocol: Rats received a 100 mg/kg (ip) dose of alpha-TS twenty four hours prior to a 40 mg/kg (ip) insult of paraquat which is a lung specific toxic agent. The rats also received a 100 mg/kg (ip) dose of alpha-TS each day after the paraquat insult.

male Sprague-Dawley rats [3] = test: THA-induced side effects in rats; conditions: 100 mg/kg ip 20 h prior
male Sprague-Dawley rats [4] = test: Global liver ischemia/reperfusion-induced lethality in rats; type: in vivo, rat; conditions: ip 20 h prior, global ischemia 60 min; CS 100 mg/kg; cholesterol 64 + tris succinate 100 mg/kg
Protocol: 20 hours prior to global occlusion, one group of 10 rats was provided with 64 mg cholesterol/kg body weight and 100 mg tris succinate/kg body weight by i.p. injection, and another group of 10 rats was provided with 100 mg cholesteryl succinate/kg body weight. A control group of rats was only partially occluded for the one hour period. Ninety percent of the rats pretreated with cholesteryl succinate tris salt survived while only 10% of those pretreated with the combination of cholesterol and tris succinate survived. Table 22 of a partial ischemia study where male Sprague-Dawley rats were subjected to occlusion of the blood supply to the left lateral and median lobes of the liver for 60 minutes followed by reperfusion for 24 hours. During this time, the normal blood supply to the other lobes of the liver was maintained. […] Serum was obtained for AST and ALT measurements.
^a Global (total) or partial liver ischemia was induced 20 hours

[5] = 50 mM EMS + 25 μM alpha-TS + 100 μM Bis-(p-nitrophenyl) phosphate
[6] = 50 mM EMS + 25 μM alpha-TS + 100 μM Diethyl p-nitrophenyl phosphate
[7] = rat hepatocytes, 25 μM, 50 mM EMS

Cc1c(C)c2c(c(C)c1OC(=O)CCC(=O)O)CC[C@@](C)(CCC[C@H](C)CCC[C@H](C)CCCC(C)C)O2 [alpha-TS, d-alpha-tocopheryl succinate]
% Initial Intracellular [K+] (rat hepatocytes [1]; 50 mM EMS + 25 μM alpha-TS): 93 ± 11 % Initial
% Initial Intracellular [K+] (rat hepatocytes [1]; [5]): 14 ± 6 % Initial
% Initial Intracellular [K+] (rat hepatocytes [1]; [6]): 26 ± 2 % Initial
% Initial Intracellular [K+] (rat hepatocytes [1]; 50 mM EMS, 5 Hrs, concentrations as cell death (Table 15)): 86 ± 6 % Initial
intracellular K+ during EMS insult (rat hepatocytes [1]; [7]): no loss of intracellular K+
protection against loss of viability (rat hepatocytes [2]; 0.5 μM, EMS): 85%
protection against loss of viability and metabolic performance (rat hepatocytes [2]; 2 μM, EMS): 100%
Protection From Toxic Injury (rat hepatocytes [2]; 2.0 μM): Yes
Protection From Toxic Injury (rat hepatocytes [2]; 10 μM): Yes
Protection From Toxic Injury (rat hepatocytes [2]; 25 μM): Yes
Protection From Toxic Injury (rat hepatocytes [2]; 250 μM): Yes
Cell Death (rat hepatocytes [2]; 50 mM EMS + 25 μM alpha-TS): 30 ± 7%
Cell Death (rat hepatocytes [2]; [5]): 52 ± 3%
Cell Death (rat hepatocytes [2]; [6]): 58 ± 8%
Cell Death (rat hepatocytes [2]; 50 mM EMS, 5 Hrs, alpha-TS 25, methyl ester 50, cholesteryl succinate 100, monomethyl/dimethyl succinate 250 μM): 27 ± 1%
Protection From Toxic Injury (rat hepatocytes [2]; .5 μM): Yes
% Cell Death (rat hepatocytes [2]; EMS 50 mM, 25 μM alpha-TS (no alpha-TS 68)): 25%
inhibition at 25 µM (rat hepatocytes [2]; 5 h, read-out: Percent Cytoprotection, 25 μM, 50 mM EMS, 5 h): 92 ± 3%
inhibition at 25 µM (rat hepatocytes [2]; read-out: % Protection, 25 μM, 50 mM EMS): 100%
protection from lethal effects of EMS (rat hepatocytes [2]; [7]): protected both rat and canine hepatocytes from the lethal effects
survival time of paraquat exposed rats (Sprague-Dawley rats): 6 days

CC(C)CCC[C@@H](C)[C@H]1CC[C@H]2[C@@H]3CC=C4C[C@@H](OC(=O)CCC(=O)O)CC[C@]4(C)[C@H]3CC[C@]12C [Cholesteryl Succinate tris salt]
Survival (male Sprague-Dawley rats [3]; THA 30.0 mg/kg (vehicle 100%)): 40%
Salivation (male Sprague-Dawley rats [3]; THA 30.0 mg/kg, 0 to 4 scale (vehicle 2.2 ± 0.4)): 4.0 ± 0.0
Tremors (male Sprague-Dawley rats [3]; THA 30.0 mg/kg, 0 to 4 scale (vehicle 3.0 ± 0.0)): 4.0 ± 0.0
% Survival (male Sprague-Dawley rats [4]): 90%
